# Reference: patent publication US20220193072A1, “METHODS OF TREATING BREAST CANCER WITH TETRAHYDRONAPHTHALENE DERIVATIVES AS ESTROGEN RECEPTOR DEGRADER” (Arvinas Operations, Inc., priority 2020, published 2022)
# Where two headings read alike, the source gives them in different places.
# How the values were obtained:
# [1] = 28-day oral toxicology study in dogs; assay type: in vivo; settings: oral once daily 28 days
# [2] = Phase I clinical trial pharmacokinetics; settings: human, in vivo, po, 30 mg, 30 mg oral once daily
# Text: A Phase I Clinical Trial with Compound (I-c) was undertaken. A traditional 3+3 dose escalation design was implemented. […] Dose increases were dependent on toxicities.
# The key entry criteria for this trial were: ER+/HER2− advanced breast cancer; at least two prior endocrine therapies in any setting, and a CDK4/6 inhibitor; and up to three prior cytotoxic chemotherapy regimens.
# The initial pharmacokinetic results are shown below in Table 2, as well as in FIG. 3 and FIG. 4.
# [3] = molecular target: T1, ERα (ESR1 Y537S) (Homo sapiens, UniProt P03372, Y537S); assay: Tumor ERα levels in ESR1 (Y537S) PDX model; assay type: in vivo; settings: for reduction of tumor ERα levels: ESR1 (Y537S) PDX, 28 days
# T1 construct: a hormone-independent patient-derived xenograft model; from tissue; host or cells: ESR1 (Y537S) patient-derived xenograft tumour grown in mice
# T1 sequence (P03372 1-595 Y537S): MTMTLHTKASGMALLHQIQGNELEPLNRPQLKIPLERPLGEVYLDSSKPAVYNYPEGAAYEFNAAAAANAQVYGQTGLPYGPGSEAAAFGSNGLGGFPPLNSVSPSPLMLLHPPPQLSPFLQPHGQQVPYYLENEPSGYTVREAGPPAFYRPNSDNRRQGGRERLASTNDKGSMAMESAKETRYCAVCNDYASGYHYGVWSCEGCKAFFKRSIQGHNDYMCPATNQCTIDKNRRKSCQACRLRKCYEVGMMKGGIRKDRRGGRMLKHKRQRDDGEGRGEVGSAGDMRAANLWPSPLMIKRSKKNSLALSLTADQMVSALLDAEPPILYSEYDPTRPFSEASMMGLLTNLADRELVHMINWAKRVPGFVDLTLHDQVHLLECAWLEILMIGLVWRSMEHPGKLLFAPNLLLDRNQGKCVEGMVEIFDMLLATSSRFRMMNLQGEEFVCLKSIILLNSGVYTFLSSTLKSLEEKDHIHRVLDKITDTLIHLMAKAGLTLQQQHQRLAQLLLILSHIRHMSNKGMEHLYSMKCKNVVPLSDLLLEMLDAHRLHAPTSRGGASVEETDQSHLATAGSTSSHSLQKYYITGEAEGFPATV
# [4] = test system: MCF7 cells; assay: Luminescence-based MCF7 cell proliferation assay, dose-response matrix; settings: 5 days (120 hours)
# Protocol: MCF7 cells were seeded at a density of 2×10^4 cells in 200 μL of media per well in 2 technical replicate, 96-well black, clear-bottom plates and incubated overnight at 37° C. in a 5% CO2 incubator. […] DMSO was used as the vehicle control. The plates were then incubated for 5 days at 37° C. in a 5% CO2 incubator.
# The plates were equilibrated to room temperature for approximately 30 minutes. 50 μL of Cell-Titer Glo (Promega) was added to all wells of the plates, covered with aluminum foil and shaken gently by hand for less than 1 minute. The plates were then incubated for 10 minutes at room temperature. Luminescence was recorded using Envision Multi Label Reader. To assess cell viability, luminescence values for drug-treated wells were normalized to average luminescence of vehicle (DMSO) wells to obtain percent viability relative to control cells. The data were analyzed with the Combenefit software.
# [5] = test system: MCF7 xenograft; assay: MCF7 orthotopic xenograft, combination with PI3K inhibitor alpelisib; assay type: in vivo, NOD/SCID mice
# Protocol: NOD/SCID female mice (Charles River, 6-7 weeks old upon arrival) were implanted with 17b-estradiol 0.72 mg 90-day pellets. The next day, each mouse was implanted with 5×10^6 MCF7 cells/[…] in the axial mammary fat pad. Compound administration was initiated once the tumors reached 175-200 mm^3. Diet was supplemented with peanut butter to help maintain body weights. Dosing holidays occurred on days 6, 7, 8 and 9 due to body weight loss in some animals in study arms 3 and 4. […] (FIG. 31 and Table 15).
# Dosing holidays occurred on days 6, 7, 8 and 9. Error bars represent standard deviation.
# The ratio of Tween 80 to PEG-400 is 0.02 g Tween 80 to 1 ml PEG-400. PEG-400 is added to a pre-aliquoted volume of Tween 80. • For alpelisib: 1% carboxymethylcellulose (CMC), 0.5% Tween 80/DI water (‘CMC/Tween’) Sampling: tumors were measured twice weekly. Terminal sacrifice was ˜18 hr after last dose. Tumor volume calculation: Tumor Volume=(width×width×length)/2, where all measurements are in mm and the tumor volume is in mm^3. Tumor Growth Inhibition (TGI) calculation: TGI (%)
# [6] = Compound (I-c) 30 mg/kg oral QD x 19
smiles,measurement,setting,value
"O=C1CC[C@H](N2Cc3cc(N4CCN(CC5CCN(c6ccc([C@@H]7c8ccc(O)cc8CC[C@@H]7c7ccccc7)cc6)CC5)CC4)ccc3C2=O)C(=O)N1 [Compound (I-c), (3S)-3-[5-[4-[[1-[4-[(1R,2S)-6-hydroxy-2-phenyl-tetralin-1-yl]phenyl]-4-piperidyl]methyl]piperazin-1-yl]-1-oxo-isoindolin-2-yl]piperidine-2,6-dione]",clinical signs of toxicity,[1]; doses up to 90 mg/kg/day,no clinical signs of toxicity
same,effects on overall animal health or well-being,[1]; up to 90 mg/kg/day,no effects on the overall animal health or well-being
same,AUC,"[2]; Phase I, read-out: Mean Day 1 AUCTAU",1690 ng·h/mL
same,Cmax,"[2]; Phase I, read-out: Mean Day 1 Cmax",109 ng/mL
same,Cmax,"[2]; Phase I, read-out: Mean Day 15 Cmax",224 ng/mL
same,AUC,"[2]; calculated using imputed 24 hour values, read-out: Mean Day 15 AUCTAU",4100 ng·h/mL
same,reduction of tumor ERα levels,[3]; 10 mg/kg oral once daily,79%
same,reduction of tumor ERα levels,[3]; 30 mg/kg oral once daily,88%
same,mutant ER protein levels,"[3]; ESR1 Y537S PDX, 10 mg/kg",significantly reduced
same,"MCF7 cell proliferation, single agent",[4],dose-dependent decrease
same,Day 19 Tumor Volume (mean ± SD),[5]; [6],207 ± 62 mm^3
same,TGI (% vehicle),[5]; [6],95 % vehicle
same,tumor growth inhibition (TGI),"[5]; single agent 30 mg/kg oral once daily, 19 days, dosing holidays days 6-9",95%
